Measured values reported in ChEMBL document CHEMBL5346893, “1,2,4-Amino-triazine derivatives as pyruvate dehydrogenase kinase inhibitors: Synthesis and pharmacological evaluation” (Eur J Med Chem, 2023).
Activity calls are given as the source filed them. The rule behind the calls is not given here.

Key:
PSN1 [1] = assay: Antiproliferative activity against human PSN1 cells expressing KRAS mutant cultured as 3D spheroids assessed as inhibition of cell growth measured after 72 hrs by MTT assay; assay type: functional, cell-based; settings: PSN1, 72 h
PSN1 [2] = assay: Induction of reactive oxygen species production in human PSN1 cells assessed as decrease in total cellular sulfhydryls level at IC50 incubated for 24 hrs by DTNB reagent based spectrophotometric analysis; assay type: functional, cell-based
PSN1 [3] = assay: Induction of reactive oxygen species production in human PSN1 cells assessed as increase in cellular hydrogen peroxide formation at 5 uM by CM-H2DCFDA staining based analysis; assay type: functional, cell-based
PSN1 [4] = assay: Induction of mitochondrial damage in human PSN1 cells assessed as increase in disruption of cristae at IC50 incubated for 24 hrs by staining based TEM analysis; assay type: functional, cell-based
[5] = target: T1, [Pyruvate dehydrogenase (acetyl-transferring)] kinase isozyme 1, mitochondrial (Homo sapiens, UniProt Q15118); assay: Inhibition of PDK1 (unknown origin) at 1.5 uM incubated for 30 mins followed by substrate addition measured after 60 mins in presence of ATP by ADP-Glo luminescent assay relative to control; settings: time 90.0 min, values are per cent of control
T1 sequence (Q15118 whole entry): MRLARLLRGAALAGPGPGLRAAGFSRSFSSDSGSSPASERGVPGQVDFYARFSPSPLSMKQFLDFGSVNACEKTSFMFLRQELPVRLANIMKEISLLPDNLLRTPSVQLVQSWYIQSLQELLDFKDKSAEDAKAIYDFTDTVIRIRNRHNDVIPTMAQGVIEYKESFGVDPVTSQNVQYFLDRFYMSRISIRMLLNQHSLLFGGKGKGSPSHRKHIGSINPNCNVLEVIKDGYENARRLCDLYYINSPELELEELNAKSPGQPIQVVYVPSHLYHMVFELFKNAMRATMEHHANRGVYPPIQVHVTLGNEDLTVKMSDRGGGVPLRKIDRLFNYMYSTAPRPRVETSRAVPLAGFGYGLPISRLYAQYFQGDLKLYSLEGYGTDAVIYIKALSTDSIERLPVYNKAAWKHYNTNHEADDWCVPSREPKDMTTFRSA

[6] = target: [Pyruvate dehydrogenase (acetyl-transferring)] kinase isozyme 2, mitochondrial (Homo sapiens) (UniProt Q15119); assay: Inhibition of PDK2 (unknown origin) at 1.5 uM incubated for 30 mins followed by substrate addition measured after 60 mins in presence of ATP by ADP-Glo luminescent assay relative to control; settings: time 90.0 min
[7] = Toxicity in C57BL mouse implanted with mouse Lewis lung carcinoma cell line assessed as anorexia at 20 mg/kg, ip administered daily on day 7 to 14 measured after 15 days; assay type: organism-based; settings: in vivo, 360 h, time 15 day
PSN1 [8] = assay: Inhibition of PDK in human PSN1 cells expressing KRAS mutant assessed as increase in cellular oxygen consumption at IC50 incubated for 60 mins by fluorescence based analysis; assay type: cell-based
BXPC-3 [9] = assay: Antiproliferative activity against human BXPC-3 cells expressing wild type KRAS cultured as 2D spheroids assessed as inhibition of cell growth measured after 72 hrs by MTT assay; assay type: functional, cell-based; settings: BXPC-3, 72 h
PSN1 [10] = assay: Induction of mitochondrial membrane potential loss in human PSN1 cells at IC50 incubated for 60 mins by fluorescence based analysis; assay type: functional
PSN1 [11] = assay: Induction of apoptosis in human PSN1 cells assessed as brightly stained nuclei at IC50 incubated for 48 hrs by Hoechst 33258 staining based confocal microscopic analysis; assay type: functional, cell-based
BXPC-3 [12] = assay: Antiproliferative activity against human BXPC-3 cells expressing wild type KRAS cultured as 3D spheroids assessed as inhibition of cell growth measured after 72 hrs by MTT assay; assay type: functional, cell-based; settings: BXPC-3, 72 h
PSN1 [13] = assay: Induction of mitochondrial damage in human PSN1 cells assessed as increase in mitochondria substantial swelling at IC50 incubated for 24 hrs by staining based TEM analysis; assay type: functional, cell-based
[14] = target: [Pyruvate dehydrogenase (acetyl-transferring)] kinase isozyme 3, mitochondrial (Homo sapiens) (UniProt Q15120); assay: Inhibition of PDK3 (unknown origin) at 1.5 uM incubated for 30 mins followed by substrate addition measured after 60 mins in presence of ATP by ADP-Glo luminescent assay relative to control; settings: time 90.0 min
Sequence of [Pyruvate dehydrogenase (acetyl-transferring)] kinase isozyme 3, mitochondrial (Homo sapiens) (Q15120 whole entry, looked up): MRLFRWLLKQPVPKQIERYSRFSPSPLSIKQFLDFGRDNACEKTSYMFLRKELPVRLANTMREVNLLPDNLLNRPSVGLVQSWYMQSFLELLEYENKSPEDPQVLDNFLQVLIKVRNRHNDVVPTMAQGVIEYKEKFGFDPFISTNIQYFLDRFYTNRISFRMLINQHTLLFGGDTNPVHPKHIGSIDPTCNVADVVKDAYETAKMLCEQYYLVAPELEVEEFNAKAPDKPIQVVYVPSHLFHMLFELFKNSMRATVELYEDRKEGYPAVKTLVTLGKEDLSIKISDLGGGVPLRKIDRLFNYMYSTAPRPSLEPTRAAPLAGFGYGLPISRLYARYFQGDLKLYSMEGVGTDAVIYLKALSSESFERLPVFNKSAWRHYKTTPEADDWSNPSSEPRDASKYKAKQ

Heat shock protein HSP90 [15] = target: T2, Heat shock protein HSP90 (Homo sapiens, UniProt P07900+P08238); assay: Inhibition of human recombinant HSP90 at 1.5 uM incubated for 30 mins by fluorescence polarization based analysis relative to control; assay type: protein assay
PSN1 [16] = assay: Antiproliferative activity against human PSN1 cells expressing KRAS mutant cultured as 2D spheroids assessed as inhibition of cell growth measured after 72 hrs by MTT assay; assay type: functional, cell-based; settings: PSN1, 72 h
[17] = In vivo antitumor activity against mouse Lewis lung carcinoma cell line implanted in C57BL mouse assessed as tumor growth inhibition at 20 mg/kg, ip administered daily on day 7 to 14 measured after 15 days; assay type: functional; settings: 360 h, time 15 day, read-out: TGI
PSN1 [18] = assay: Inhibition of PDK in human PSN1 cells expressing KRAS mutant assessed as decrease in lactate production levels at IC50 incubated for 60 mins by colorimetric analysis; assay type: cell-based
Heat shock protein HSP90 [19] = target: T2, Heat shock protein HSP90; assay: Inhibition of human recombinant HSP90 incubated for 30 mins by fluorescence polarization based analysis; assay type: protein assay
PSN1 [20] = assay: Downregulation of PDHA1 phosphorylation in human PSN1 cells at IC50 incubated for 24 hrs by ELISA assay; assay type: functional, cell-based
[21] = Toxicity in C57BL mouse implanted with mouse Lewis lung carcinoma cell line assessed as reduction in body weight loss at 20 mg/kg, ip administered daily on day 7 to 14 measured after 15 days; assay type: organism-based; settings: in vivo, 360 h, time 15 day
PSN1 [22] = assay: Induction of mitochondrial damage in human PSN1 cells assessed as decrease in mitochondria inner membrane electron density at IC50 incubated for 24 hrs by staining based TEM analysis; assay type: functional, cell-based
PSN1 [23] = assay: Induction of mitochondrial damage in human PSN1 cells assessed as decrease in mitochondria matrix region electron density at IC50 incubated for 24 hrs by staining based TEM analysis; assay type: functional, cell-based
Lewis lung carcinoma = assay: In vivo antitumor activity against mouse Lewis lung carcinoma cell line implanted in C57BL mouse assessed as reduction in PDHA1 phosphorylation at 20 mg/kg, ip administered daily on day 7 to 14 measured after 15 days by ELISA assay; assay type: functional, organism-based; settings: time 15.0 day
[24] = target: T1, [Pyruvate dehydrogenase (acetyl-transferring)] kinase isozyme 1, mitochondrial; assay: Inhibition of PDK1 (unknown origin) incubated for 30 mins followed by substrate addition measured after 60 mins in presence of ATP by ADP-Glo luminescent assay
[25] = target: [Pyruvate dehydrogenase (acetyl-transferring)] kinase isozyme 4, mitochondrial (Homo sapiens) (UniProt Q16654); assay: Inhibition of PDK4 (unknown origin) at 1.5 uM incubated for 30 mins followed by substrate addition measured after 60 mins in presence of ATP by ADP-Glo luminescent assay relative to control; settings: time 90.0 min
Sequence of [Pyruvate dehydrogenase (acetyl-transferring)] kinase isozyme 4, mitochondrial (Homo sapiens) (Q16654 whole entry, looked up): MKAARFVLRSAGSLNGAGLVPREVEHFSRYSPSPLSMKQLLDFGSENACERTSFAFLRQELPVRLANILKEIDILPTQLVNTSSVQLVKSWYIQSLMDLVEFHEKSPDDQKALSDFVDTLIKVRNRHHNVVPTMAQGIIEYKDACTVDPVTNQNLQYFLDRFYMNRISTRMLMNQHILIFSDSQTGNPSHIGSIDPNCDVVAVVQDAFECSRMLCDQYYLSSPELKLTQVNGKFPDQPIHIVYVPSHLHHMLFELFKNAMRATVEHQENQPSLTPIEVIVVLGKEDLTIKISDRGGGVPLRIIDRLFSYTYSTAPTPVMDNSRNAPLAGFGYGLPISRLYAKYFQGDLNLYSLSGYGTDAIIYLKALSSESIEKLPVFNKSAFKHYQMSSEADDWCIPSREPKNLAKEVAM

PSN1 [26] = assay: Induction of apoptosis in human PSN1 cells assessed as chromatin condensation at IC50 incubated for 48 hrs by Hoechst 33258 staining based confocal microscopic analysis; assay type: functional, cell-based
[27] = In vivo antitumor activity against mouse Lewis lung carcinoma cell line implanted in C57BL mouse assessed as tumor growth inhibition at 60 mg/kg, ip administered daily on day 7 to 14 measured after 15 days; assay type: functional; settings: 360 h, time 15 day, read-out: TGI

| Compound | IC50 (PSN1 [1]) [nM] | Activity (PSN1 [2]) | Activity (PSN1 [3]) | Activity (PSN1 [4]) | residual activity [5] [%] | inhibition [6] [%] | inhibition (PSN1 [8]) | IC50 (BXPC-3 [9]) [nM] | Activity (PSN1 [11]) | IC50 (BXPC-3 [12]) [nM] | Activity (PSN1 [13]) | inhibition (Heat shock protein HSP90 [15]) [%] | IC50 (PSN1 [16]) [nM] | inhibition (PSN1 [18]) | IC50 (Heat shock protein HSP90 [19]) [nM] | Activity (PSN1 [20]) | Activity (PSN1 [22]) | Activity (PSN1 [23]) | IC50 [24] [nM] | inhibition [25] [%] | further results |
| --- | --- | --- | --- | --- | --- | --- | --- | --- | --- | --- | --- | --- | --- | --- | --- | --- | --- | --- | --- | --- | --- |
| COc1ccc2[nH]cc(-c3nnc(N)nc3-c3cn(C)c4ncc(Br)cc34)c2c1 | 11900 | Active | Active | Active | 0 | 100 | Active | 100 | Active | 3300 | Active | 0 | 1000 | Active | 100 | Active | Active | Active | 30 | 0 | Activity [7]: ~ 20%; Activity (PSN1 [10]; 1 h): 45%; inhibition [14]: 100%; inhibition in vivo at 20 mg/kg [17]: 86%; Activity [21]: Non-Toxic; Activity (Lewis lung carcinoma): Active; Activity (PSN1 [26]): Active |
| Nc1ccn([C@@H]2O[C@H](CO)[C@@H](O)C2(F)F)c(=O)n1 [GEMCITABINE] |  |  |  |  |  |  |  | 100 |  |  |  |  | 20 |  |  |  |  |  |  |  | inhibition in vivo at 60 mg/kg [27]: 80% |
| Cn1cc(-c2nnc(N)nc2-c2c[nH]c3ccc(F)cc23)c2cc(Br)cnc21 | 11200 | Active | Active | Active | 0 | 100 | Active | 200 | Active | 6900 | Active | 60 | 600 | Active |  | Active | Active | Active | 60 | 0 | Activity (PSN1 [10]): Active; Activity (PSN1 [26]): Active |
| Cn1cc(-c2nnc(N)nc2-c2c[nH]c3ccc(Br)cc23)c2cc(Br)cnc21 | 39100 | Active | Active |  | 60 | 100 | Active | 100 |  | 24800 |  | 40 | 1300 | Active | 1400 | Active |  |  | 210 | 60 | Activity (PSN1 [10]): Active |
